Among the data in PubChem BioAssay (NCI) are TGI values, retold here.

What all share (experiment): inhibition of tumour cell growth, NCI panel, 48 h
Assay [1] deals with 786-0 renal.
In assay [2] the test system is COLO 205 colon.
Assay [3] deals with HOP-62 NSCLC.
Assay [4] relates to NCI-H522 lung.
The test system of assay [5] is SK-MEL-5 melanoma.
In assay [6] the test system is SK-OV-3 ovarian.
Assay [7] relates to T-47D breast.
Assay [8] has as its system U251 CNS.
In assay [9] the test system is UO-31 renal.
For assay [10], the system named is IGROV1 ovarian.

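96-well plates; 48 h exposure; 5 concentrations. Endpoints by linear interpolation between flanking doses. Not reached: highest tested concentration assigned. TGI is the concentration that stops growth completely.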

For `C/C(=N\Nc1nc2ccccc2n1C)c1ccncn1`, the TGI in assay [1] was 20.3 µM; in [2] it was more than 100 µM; in assay [3], more than 100 µM; in assay [4] it was more than 31.4 µM; in assay [5], 11.6 µM; in assay [6], more than 100 µM. In addition, the values for the TGI in [7], in assay [8] and in [9] were more than 100 µM, more than 32.9 µM and 22.9 µM, respectively.

On to `COc1cc(C)c(S(=O)(=O)N(CCCN)OCCCN)c(C)c1C`, for which the TGI in assay [1] was more than 100 µM; in assay [2], 41.2 µM; in assay [3], more than 100 µM; in assay [10], more than 100 µM; in assay [4], 51.7 µM; in [5], 53 µM. The TGI in assay [6], in assay [7], in assay [8] and in assay [9] was more than 100 µM each time.

Take `CC(C)(CO)Nc1c(O)c2c(c(O)c1Cl)C(=O)C=CC2=O`: the TGI in assay [1] is 2.85 µM; in assay [2], 2.56 µM; in assay [3], 2.95 µM; in assay [10], 2.92 µM; in [4] it was 0.928 µM; in assay [5], 2.35 µM. The TGI in assay [6] turned out to be 2.91 µM; in assay [7] it was 4.18 µM; in assay [8], 3.11 µM; in assay [9] it was 2.88 µM.

In the case of `c1ccc2c(c1)[C@@H]1O[C@@H]1[C@@]13O[C@@]21[C@H]1O[C@H]1c1ccccc13`, the TGI came to 30.1 µM in assay [1]; 32.8 µM in [2]; 30.8 µM in [3]; 29.3 µM in assay [10]; 25.4 µM in [4]; 26.7 µM in assay [5]. Further, the TGI in assay [6] was 52.2 µM; in assay [7] it was 57.8 µM; in assay [8], 28.2 µM; in assay [9] it was 51.1 µM.

As for `Cc1nc(C)c(C(=O)NNC(=O)c2ccccc2)cc1C(=O)NNC(=O)c1ccccc1`, the TGI in assay [1] was more than 100 µM; in [2] it was more than 100 µM; in assay [3], more than 100 µM; in assay [10] it was more than 10 µM; in [4], more than 100 µM; in [5], more than 100 µM. The TGI in assay [6], in assay [7], in assay [8] and in assay [9] was more than 100 µM throughout.

Regarding `Fc1sc2c(c1F)C1CCC2C1` (configuration not stated), the TGI in assay [1], in [2], in [3], in [10], in assay [4] and in assay [5] was more than 100 µM in each case. Further, the TGI in [6], in [7], in assay [8] and in [9] was more than 100 µM throughout.

`CN1CCN(C2CC(=O)c3c(Cl)sc(Cl)c32)CC1` (configuration not stated): the TGI was 21.8 µM in assay [1]; more than 53.4 µM in assay [2]; 42.6 µM in assay [3]; more than 25.6 µM in assay [10]; 13.3 µM in [4]; more than 56.4 µM in [5]. Besides, the TGI in [6] is more than 90 µM; in [7], more than 45.9 µM; in [8], 36 µM; in [9], 17 µM.

As to `CC(=O)c1nc(C#N)c(N)o1`, the TGI in assay [1], in assay [2], in assay [3], in assay [10], in [4] and in assay [6] was more than 100 µM in each case. The TGI in assay [7], in [8] and in [9] was more than 100 µM each time.

As for `CCOC(=O)/C=C/C(Br)=C(Br)/C=C/C(=O)OCC`, the TGI worked out at 8.61 µM in assay [1]; 30.8 µM in assay [2]; 36.7 µM in [3]; 30.1 µM in [10]; 7.14 µM in assay [4]; 27.7 µM in assay [5]. The TGI in assay [6] is 47.8 µM; in assay [7], more than 64.5 µM; in [8], 27.9 µM; in assay [9] it was 23.8 µM.

As to `Nc1nc(Cl)cc(NCC2CC(O)(CO)C2)n1` (configuration not stated), the TGI in [1], in [2], in assay [3], in assay [10], in [4] and in assay [5] was more than 100 µM throughout. Further, the TGI in assay [6], in assay [7], in assay [8] and in assay [9] was more than 100 µM in each case.

Consider `CC(=O)OCC12C(OC(C)=O)C[C@@H](C)C3(CC(c4ccoc4)OC3=O)C1CCC(OC(C)=O)C21CO1` (some centres not stated), for which the TGI in assay [1], in assay [2], in [3], in assay [10], in [4] and in [5] was more than 100 µM in each case. Also, the TGI in [6], in [7], in assay [8] and in assay [9] was more than 100 µM in each case.

For the molecule `CC(=O)c1c2c(cc3c1CCC3)CCC2`, the TGI in assay [1], in [2], in assay [3], in assay [10], in assay [4] and in assay [5] was more than 100 µM throughout. For the same molecule, the TGI in [6] was more than 100 µM; in assay [7], 46.8 µM; in assay [8] it was more than 100 µM; in assay [9] it was more than 100 µM.

On to `CC1CC2OC(=N)C1(C#N)C2(C#N)C#N` (configuration not stated), for which the TGI in assay [1] was found to be 44.9 µM; in assay [2], 24.8 µM; in [3] it was 35.2 µM; in assay [10], 51.4 µM; in assay [4] it was 37.8 µM; in assay [5], 22.2 µM. The TGI in assay [6] was more than 100 µM; in assay [7], 97.4 µM; in assay [8], more than 100 µM; in [9], 93 µM.

For the molecule `CCOC(=O)CCN1C(=O)c2c(NC(=O)C(=O)O)cccc2S1(=O)=O`, the TGI in [1], in [2], in assay [3], in assay [10], in assay [4] and in [6] was more than 100 µM in each case. The TGI in assay [7], in assay [8] and in assay [9] was more than 100 µM in each case.
